# Where “and” joins values, the source holds several entries; their conditions need not be identical. Equal entries are not always repeated.
# Target: Nonstructural protein 3 (Zika virus, UniProt A0A024AXB9)
# Test: Functional biochemical assay to identify treatments for viral infectious disease that targets Zika NS2B-NS3 protease. Utilizing a direct enzyme activity measurement method, reading the fluorescence intensity is used to characterize the relative potency of inhibitors as IC50.
# Parameters: species or system PRVABC59
# Nonstructural protein 3, sequence (A0A024AXB9 whole entry): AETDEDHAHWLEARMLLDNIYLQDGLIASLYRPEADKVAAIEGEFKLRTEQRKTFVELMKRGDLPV
row,Structure (SMILES),IC50
1,NCc1cccc(NC(=O)[C@@H](NC(=O)OCc2ccccc2)c2ccc(OCc3ccncc3)cc2)c1,90 µM
2,O=C(O)c1cc(Cl)ccc1S(=O)(=O)NC1CCN(C(=O)c2ccccc2C(F)(F)F)CC1,> 99.5 µM
3,Cn1nc2c(c1NC(=O)c1cc(Cl)cc(NC(=O)OCc3ccccc3)c1)CNCC2,21.9 µM
4,O=C(Nc1ccc2c(c1)CNC2)c1ccc2c(C3=CCNCC3)csc2c1,0.5 µM and 0.54 µM
5,CNC(=O)[C@H](Nc1ccc2c(c1)CNC2)c1cccc2[nH]ncc12,3.83 µM
6,Cc1cc(C(=O)Nc2cccc(CN)c2)c2c(C)nn(CC(=O)NC(C)C)c2n1,> 99.5 µM
7,NCCc1nsc(NC(=O)c2cc(Cl)cc(NC(=O)OCc3ccccc3)c2)n1,> 99.5 µM
8,COC(=O)[C@H](NC(=O)OC(C)(C)C)c1ccc(-c2csc(C)c2)cc1,> 99.5 µM
9,O=c1c2cccn2cnn1Cc1cnc(Cl)s1,> 99.5 µM
10,O=C(O)c1cc(Cl)ccc1S(=O)(=O)NC1CCN(c2ncnc3c2CCC3)CC1,> 99.5 µM
11,Cn1nc(NC(=O)c2cc(Cl)cc(NC(=O)OCc3ccccc3)c2)c2c1CNC2,> 99.5 µM
12,O=C(Nc1cc(Cl)cc(C(=O)NC[C@H]2C[C@@H]2C(=O)O)c1)OCc1ccccc1,> 99.5 µM
13,CNC(=O)[C@]1(Nc2ccc3c(c2)CNC3)CCc2ccc(Cl)cc21,34.6 µM
14,CCNCc1ccc(NC(=O)c2cc(Cl)cc3[nH]ncc23)cc1,11.5 µM
15,NCc1cccc(NC(=O)[C@@H](NC(=O)OCc2ccccc2)c2ccc(-c3cccnc3F)cc2)c1,45.1 µM
16,CCc1c(C(=O)Nc2cccc(CN)c2)c2cc(Cl)ccc2n1C,> 99.5 µM
17,O=C1CN(C(=O)Nc2ccc3c(c2)CNC3)[C@H]2CCCC[C@H]2N1,> 25 µM
18,O=C(Nc1ccc2c(c1)CNC2)c1c(Br)ccc2[nH]ncc12,> 25 µM
19,O=c1ccc(N2CCN(Cc3c[nH]c4ccccc34)CC2)c[nH]1,> 99.5 µM
20,CN(C)Cc1cc(CNC(=O)[C@@H](NC(=O)OCc2ccccc2)c2ccc(OCc3ccccc3)cc2)ccc1F,> 99.5 µM
21,O=C(Nc1ccc2c(c1)CNC2)[C@H]1CCCc2[nH]ncc21,> 25 µM
22,O=C(O)c1cc(Cl)ccc1NS(=O)(=O)c1ccc(-c2cn[nH]c2)cc1,> 99.5 µM
23,Cc1cc(C(=O)Nc2cccc(CN)c2)c2c(n1)CCCC2,> 99.5 µM

row,Structure (SMILES),IC50
1,NCCCc1ccnc(NC(=O)c2cc(Cl)cc(NC(=O)OCc3ccccc3)c2)c1,18.4 µM
2,NC[C@@H](NC(=O)c1cc(Cl)cc(NC(=O)OCc2ccccc2)c1)c1ccccc1,> 99.5 µM
3,CC(C)Nc1nc2ccc(C(=O)Nc3nnnn3-c3ccccn3)cc2[nH]1,> 99.5 µM
4,O=C(O)c1cc(Cl)ccc1CS(=O)(=O)c1ccc(Oc2ccccc2Cl)cc1,> 99.5 µM
5,Cc1ncc(-c2ccc([C@@H](NC(=O)OCc3ccccc3)C(=O)Nc3cccc(CN)c3)cc2)s1,27.2 µM
6,NCc1cccc(NC(=O)c2cccc(CN)c2)c1,1.87 µM
7,NCc1cccc(NC(=O)[C@H](NS(=O)(=O)c2cccnc2)c2ccc(OCc3ccccc3)cc2)c1,> 99.5 µM
8,NCCCc1ccnc(NC(=O)c2csc(C3CC3)n2)c1,> 99.5 µM
9,O=C(O)c1cc(Cl)ccc1S(=O)(=O)Nc1ccc(N2CCCCCC2)cc1,> 99.5 µM
10,Nc1cccc(NC(=O)c2cc(Cl)cc(NC(=O)OCc3ccccc3)c2)c1,> 99.5 µM
11,Cc1[nH]c2ccccc2c1CN1CCC(c2c[nH]c3ncccc23)CC1,5.81 µM
12,O=C(Nc1cccc(-c2nnn[nH]2)c1)c1cc(Cl)cc(C2CC2)c1,> 99.5 µM
13,Cc1ncc(Br)cc1C(=O)Nc1ccc2c(c1)CNC2,1.85 µM
14,NCc1cccc(NC(=O)c2cc(Cl)cc(C3CC3)c2)c1,8.27 µM
15,CO[C@H]1CCCN(C(=O)c2ccnc(NC(=O)c3cc(C4CC4)n(C)c3C)c2)C1,> 25 µM
16,O[C@H]1CCCN(Cc2c[nH]c3ccccc23)C1,> 99.5 µM
17,O=C(Nc1cc(Cl)cc(C(=O)Nc2nc([C@H]3CCCN3)cc(=O)[nH]2)c1)OCc1ccccc1,92 µM
18,Clc1ccc(-c2cc(CN3CCC(c4cscn4)CC3)[nH]n2)cc1,> 99.5 µM
19,O=C1Cc2c(cccc2C(=O)Nc2ccc3c(c2)CNCCC3)N1,0.569 µM
20,O=C(Nc1cc(Cl)cc(C(=O)N2CCC(C(=O)O)CC2)c1)OCc1ccccc1,> 99.5 µM
21,O=C(O)c1cc(Cl)ccc1NS(=O)(=O)c1ccc(-c2ccc(F)cc2)cc1,32.9 µM
22,NCc1cccc(S(=O)(=O)Cc2cc(Cl)cc(NC(=O)OCc3ccccc3)c2)c1,92.3 µM
23,O=C(O)c1cccc(NC(=O)c2cccc(OCc3c(Cl)cccc3Cl)c2)c1,> 99.5 µM

row,Structure (SMILES),IC50
1,NCc1cccc(NC(=O)c2cc(Cl)cc(CNC(=O)OCc3ccccc3)c2)c1,22.1 µM
2,O=C(Nc1cccc2c1CNC2)c1cc(Cl)cc2[nH]ncc12,> 25 µM
3,NCc1cccc(NC(=O)c2cc(NC(=O)OCc3ccccc3)cc3c2OCCO3)c1,89.6 µM
4,CCc1cccc(NC(=O)[C@]2(Oc3ccc(Br)cc3)CCNC3(CC3)C2)c1,> 99.5 µM
5,CC(C)c1noc2nc(C3CC3)cc(C(=O)Nc3cccc(CN)c3)c12,> 99.5 µM
6,Cc1c(C(=O)Nc2ccnc(O[C@H]3CCOC3)c2)cc(C2CC2)n1C,> 25 µM
7,CC(C)NC(=O)[C@H](Nc1ccc2c(c1)C(=O)OC2)c1cc(Cl)cc2[nH]ncc12,> 25 µM
8,O=C(Nc1cc(Cl)cc(C(=O)N[C@@]23CCCCC[C@@H]2NCC3)c1)OCc1ccccc1,76.1 µM
9,O=C(NCC(F)F)[C@H](Nc1ccc2c(c1)CNC2)c1cc(Br)cc2[nH]ccc12,0.077 µM and 0.044 µM
10,C#Cc1cc(CN)ccc1NS(=O)(=O)c1ccc(Oc2ccccc2Cl)cc1,> 99.5 µM
11,Cc1nnc(CSc2ncnc3sccc23)o1,> 99.5 µM
12,Cc1ccc(C(C)C)c(C(=O)Nc2ccc3c(c2)CNC3)c1,3.72 µM
13,Cn1ccnc1S(=O)(=O)N[C@@H](C(=O)Nc1cccc(CN)c1)c1ccc(OCc2ccccc2)cc1,> 99.5 µM
14,Cc1oc(C(=O)Nc2cccc(CN)c2)cc1COc1ccccc1,> 99.5 µM
15,COCCOc1ccc(Cl)cc1C(=O)Nc1ccc2c(c1)CNC2,3.06 µM
16,Cc1ccc(CN(C)C)cc1NC(=O)[C@@H](NC(=O)OCc1ccccc1)c1ccc(OCc2ccccc2)cc1,> 99.5 µM
17,Cc1nccn1-c1ccc(NS(=O)(=O)c2ccc(Cl)cc2C(=O)O)cc1F,> 99.5 µM
18,CCn1c(=O)c(N2C[C@H]3C[C@@]3(C(F)F)C2)nc2ccccc21,> 99.5 µM
19,NCc1cccc(NC(=O)c2cc(Cl)ccc2NS(=O)(=O)c2ccc(Oc3ccccc3Cl)cc2)c1,> 99.5 µM
20,CC(C)N1C(=O)C[C@H](C(=O)Nc2cccc(CN)c2)[C@H]1c1ccc(Cl)c(F)c1,> 99.5 µM
21,CCn1c(=O)c(N2C[C@@H]3C[C@]3(CO)C2)nc2ccccc21,> 99.5 µM
22,O=C(O)Cn1ncc2cc(-c3cc(Cl)cc(NC(=O)OCc4ccccc4)c3)ccc21,45.2 µM

# Other lines, results leading:
row,IC50,Structure (SMILES)
1,> 99.5 µM,Cc1noc(C)c1Cc1ccc(C(=O)Nc2cccc(CN)c2)o1
2,8.78 µM,O=C(Nc1cc(Cl)cc(C(=O)Nc2ccc(N3CCCNCC3)cc2)c1)OCc1ccccc1
3,< 2.49 µM and 0.175 µM and 0.19 µM,O=C(Nc1cc(Cl)cc(C(=O)Nc2ccc3c(c2)CNC3)c1)OCc1ccccc1
4,> 25 µM,Cc1c(C(=O)Nc2cccc(-c3cccnc3)c2)cc(C2CC2)n1C
5,> 25 µM,O=C(Nc1cc(-c2cccnc2)ccn1)c1csc(C[C@H]2CCNC2)n1
6,> 99.5 µM,O=C(O)c1cc(Cl)ccc1S(=O)(=O)NC1CCN(S(=O)(=O)c2cccs2)CC1
7,7.96 µM,NCc1cc(NC(=O)c2cc(Cl)cc(NC(=O)OCc3ccccc3)c2)cc(C2=CC[C@H](C(=O)O)C2)c1
8,1.08 µM,NS(=O)(=O)c1cc(Cl)cc(C(=O)Nc2ccc3c(c2)CNC3)c1
9,> 99.5 µM,CCn1c(=O)c(N2C[C@]3(CO)C[C@H]2CO3)nc2ccccc21
10,> 99.5 µM,CC(C)(C)OC(=O)NCc1cccc(NC(=O)[C@H](NC(=O)OCc2ccccc2)C2CCNCC2)c1
11,> 99.5 µM,NCc1cccc(NC(=O)[C@]2(NC(=O)OCc3ccccc3)CCOc3ccccc32)c1
12,> 99.5 µM,N#C[C@H](Nc1ccc(CCC(=O)O)cn1)c1cc(Cl)cc(C2CC2)c1
13,69.8 µM,O=C1COc2c(cccc2N2CCN(Cc3c[nH]c4ccccc34)CC2)N1
14,> 99.5 µM,O=C(O)c1ccc(F)c(F)c1NS(=O)(=O)c1ccc(Oc2ccccc2Cl)cc1
15,3.56 µM,Cc1ccc(-c2cc(CN)cc([C@@H]3C[C@H]3c3cc(Cl)cc(NC(=O)OCc4ccccc4)c3)c2)cn1
16,> 99.5 µM,Clc1cc([C@@H]2C[C@H]2c2cccc(-c3nn[nH]n3)c2)c2cn[nH]c2c1
17,> 99.5 µM,N#C[C@H](Nc1cccc(C(=O)O)c1)c1cc(Cl)cc2[nH]ncc12
18,> 99.5 µM,Cc1nnsc1Cn1ccc(Br)n1
19,> 99.5 µM,NC(=O)C1CCN(Cc2c[nH]c3ccccc23)CC1

row,IC50,Structure (SMILES)
1,0.466 µM,N#Cc1csc2cc(C(=O)Nc3ccc4c(c3)CNC4)ccc12
2,> 99.5 µM,CN(C)Cc1ccc(CNC(=O)[C@@H](NC(=O)OCc2ccccc2)c2ccc(OCc3ccccc3)cc2)cc1
3,> 25 µM,Cc1c(C(=O)Nc2cc(C3CCOCC3)ccc2F)cc(C2CC2)n1C
4,> 99.5 µM,COc1nc(Cl)c(CSc2nc(C)co2)s1
5,87.6 µM,CN1CCC(COc2cccc([C@H](NC(=O)OCc3ccccc3)C(=O)Nc3cccc(CN)c3)c2)CC1
6,19 µM,NCCCc1cccc(NC(=O)c2cc(Cl)cc(NC(=O)OCc3ccccc3)c2)n1
7,> 99.5 µM,NC(=O)c1cccc(NC(=O)c2cc(Cl)cc(NC(=O)OCc3ccccc3)c2)c1
8,32.6 µM,c1cncc(C2CCN(Cc3c[nH]c4ccccc34)CC2)c1
9,> 25 µM,O=C1Cc2c(cccc2C(=O)N[C@H]2COc3cc(Br)cnc32)N1
10,2.29 µM,CC(C)COc1ccc(Cl)cc1C(=O)Nc1ccc2c(c1)CNC2
11,> 25 µM,Cn1nc(C2CC2)cc1C(=O)Nc1cc(-c2cccnc2)ccn1
12,> 25 µM,CC(C)(C)OC(=O)N1Cc2ccc(NC(=O)c3ccc4c(Br)csc4c3)cc2C1
13,0.364 µM,CO[C@H](C)Cn1cc2c(C(=O)Nc3ccc4c(c3)CNC4)cc(Cl)cc2n1
14,1.35 µM,NCc1cccc(NC(=O)c2cc(Cl)cc(C(N)=O)c2)c1
15,> 25 µM,O=C1OCc2ccc(NC(=O)c3cc(F)cc4c3CCNC4)cc21
16,24.6 µM,O=C(Nc1ccc2c(c1)CNC2)N1C[C@H](C(F)F)C2(CC2)C1
17,2.7 µM,NCc1cccc(NC(=O)c2cc(Cl)cc(-n3cccc3)c2)c1
18,33.1 µM,CCOCCCN1Cc2ccc(NC(=O)c3cc(Cl)cc4[nH]ncc34)cc2C1

# — ChEMBL document CHEMBL5604062, “ASAP - ZIKV NS2B-NS3 protease fluorescence dose response” (2024)
